In US20130065818A1, “Arylamide Compounds And Compositions And Uses Thereof” (POLYMEDIX, priority 2006, published 2013):
≈ marks a conversion by molar mass, not a printed value. Read-outs that look alike come from different tables or passages of the source.

Tests used:
[1] = system: Ciprofloxacin Susceptible (CS) S. aureus (CSSA); assay: MIC of clinical ocular isolates (Example 1); type: cell-based; settings: Staphylococcus aureus; CSSA clinical ocular isolates (n=27)
[2] = NZW rabbit keratitis model, clinical evaluation (Total Ocular Score)
Description: Fifteen rabbits were received from Myrtles' Rabbitry, Thompson Station, TN. The clinical isolate of fluoroquinolone-resistant, methicillin-resistant (MRSA) Staphylococcus aureus (K950) was subcultured on 5% sheep blood agar and incubated at 37° C. in 6% CO2 overnight. The next morning, the MRSA strain was suspended in sterile trypticase soy broth to a 0.5 McFarland Standard, containing approximately 5×10^8 cfu/ml of bacteria. The absorbance of the suspension was measured at 650 nm using a Beckman DU-70 spectrophotometer. OD readings of 0.07 corresponded to 5×10^8 cfu/ml of bacteria. This concentration was appropriately diluted in sterile trypticase soy broth to provide the inoculum of approximately 1,000 (1.0×10^3) cfu/eye in 25 μl. Colony counts were performed on the inoculum to determine the actual cfu inoculated. Following general anesthesia with ketamine and xylazine and topical anesthesia with proparacaine and prior to bacterial inoculation in the left eyes, 6 mm areas of the corneal epithelia was removed centrally with an Amoils epithelial scrubber. Nothing was done to the right eyes. The 15 rabbits were then inoculated intrastromally in both eyes with 25 μl of the bacterial dilution of approximately 10^3 cfu/eye of the bacteria. The bacterial inoculation of the left eyes was directly under the epithelial defect created by the Amoils epithelial scrubber. The epithelia were removed in the left corneas in order to determine whether this layer of the cornea is a barrier for Oligomer 2 penetration when compared to the right cornea with an intact epithelium. A colony count was done on the inoculum to determine the actual cfu inoculated. The rabbits were immediately treated with analgesia in the form of and intramuscular injection of ketoprofen, 1.5 mg/kg. After 4 hours, the 15 rabbits were divided into 4 treatment groups and one untreated control group sacrificed at the onset of therapy. Both eyes of each rabbit of the treatment groups were treated with one 37 μl drop of the coded solutions or control Saline or 1 drop of vancomycin from its dropper bottle. The Oligomer 2 concentrations were masked and labeled as 1 and 2. The masked concentrations were 1% Oligomer 2 and 0.5% Oligomer 2 but the specific concentrations of solutions were not known to the lab workers who carried out the experiment. The vancomycin and control (Tris-Buffered Saline) were not masked.
Treatment was scheduled for every 15 minutes for 5 hours (21 total doses). However, PMX-1 and PMX-2 were exhausted after the 19th dose. Therefore, the actual treatment was 15 minutes for 4.5 hours (19 total doses). The 3 rabbits in group V were sacrificed 4 hours PI and large 9.5 mm buttons were removed from the corneas. These were placed in 1 ml of PBS and kept on ice. The corneal buttons were homogenized for 25 seconds on ice using the motorized homogenizer. After homogenization, colony counts were done on the homogenates using 5% sheep blood agar plates to determine the amount of bacteria contained in the corneas at the onset of therapy. Following the completion of therapy, the eyes were examined for clinical signs of infection. One hour after the final treatment, the treated rabbits (Groups I-IV) were sacrificed and large 9.5 mm buttons were removed from the corneas. These were placed in 1 ml of PBS and kept on ice. The corneal buttons were homogenized for 25 seconds on ice using the motorized homogenizer. After homogenization, colony counts were performed on the homogenates using 5% sheep blood agar plates to determine the amount of bacteria contained in the corneas after treatment. The next morning, the plates were counted and the number of cfu/eye of Staphylococcus aureus was determined for each cornea.
Fifteen rabbits were received from Myrtles' Rabbitry, Thompson Station, TN.

[3] = system: Haemophilus influenzae; assay: MIC, 25 ocular isolates, broth microdilution (Example 8); type: cell-based; settings: for MIC / MIC50 / MIC90: Haemophilus influenzae
Description: HTM (Haemophilus Test Medium) in tubes was inoculated with 25 ocular isolates of Haemophilus influenzae plus two controls (Staphylococcus aureus and E. coli) and incubated at 37° C. overnight. Additionally, Mueller-Hinton Broth in tubes was inoculated with two controls (Staphylococcus aureus and E. coli) and incubated at 37° C. overnight on a shaker set at 250 rpm.
On the day of testing, a 640 μg/ml (1280 μg/ml for Serratia marcescens and Pseudomonas aeruginosa) concentration was prepared from a 1% stock solution in 0.01% acetic acid, 0.2% BSA in polypropylene tubes.
Serial doubling dilutions in 0.01% acetic acid, 0.2% BSA in 96 well polypropylene plates, which are used as reservoirs for the inoculation of the test plates, were carried out to obtain serial dilutions of test agents at 10 times the required test concentrations: 640, 320, 160, 80, 40, 20, 10, 5, 2.5, 1.25, and 0.625 μg/ml (1280, 640, 320, 160, 80, 40, 20, 10, 5, 2.5, and 1.25 μg/ml for Serratia marcescens and Pseudomonas aeruginosa).
Ten μl of diluted 10×test agents was added to each well of one row of the 96 well polypropylene plates from column 2 to column 12 (column 1 is a control for bacteria alone, with no peptide). Test agent concentrations in columns 2-12 were as follows: 64, 32, 16, 8, 4, 2, 1, 0.5, 0.25, 0.125, and 0.0625 μg/ml (128, 64, 32, 16, 8, 4, 2, 1, 0.5, 0.25, and 0.125 μg/ml for Serratia marcescens and Pseudomonas aeruginosa). The same peptide was in each of the 8 rows. One plate contained dilutions of one test agent and 8 bacterial isolates.
On the day of testing, the overnight bacterial broth cultures of Haemophilus species was diluted in 5 ml of trypticase soy broth to yield turbidity equal to a 0.5 McFarland standard. The final inoculum for MIC testing for Haemophilus species was achieved by placing 0.1 ml of the turbidity adjusted sample to 5 ml of HTM medium.
Ninety μl of the bacterial suspensions was dispensed in each well from column 1 to column 12. Each bacterial isolate was placed in one row of a 96 well polypropylene plate containing the test agents. The plates were placed on shaker at 15 minutes at room temperature, and then incubated at 37° C. overnight. MICs were determined visually as the lowest concentration of drug that inhibits visible bacterial growth.

[4] = 25 ocular isolates, HTM medium, read-out: Median MIC
[5] = isolate 10 B1378, read-out: MIC
[6] = isolate 11 B1313, read-out: MIC
[7] = isolate 12 B1477, read-out: MIC
[8] = isolate 13 B1286, read-out: MIC
[9] = isolate 14 B1282, read-out: MIC
[10] = isolate 15 B1291, read-out: MIC
[11] = isolate 16 B1280, read-out: MIC
[12] = isolate 17 B1279, read-out: MIC
[13] = isolate 18 B1260, read-out: MIC
[14] = isolate 19 B1238, read-out: MIC
[15] = isolate 20 B1209, read-out: MIC
[16] = isolate 21 B1249, read-out: MIC
[17] = isolate 22 B1248, read-out: MIC
[18] = isolate 23 B1244, read-out: MIC
[19] = isolate 24 B1419, read-out: MIC
[20] = isolate 25 B1222, read-out: MIC
[21] = n=25 isolates, >64 replaced with 128
[22] = n=25 isolates, >64 replaced with 128, read-out: Median MIC

SMILES	MIC [3, 4] [µg/mL]	MIC ([3]; isolate 1 B1359, read-out: MIC) [µg/mL]	MIC ([3]; isolate 2 B1346, read-out: MIC) [µg/mL]	MIC ([3]; isolate 3 B1345, read-out: MIC) [µg/mL]	MIC ([3]; isolate 4 B1343, read-out: MIC) [µg/mL]	MIC ([3]; isolate 5 B1338, read-out: MIC) [µg/mL]	MIC ([3]; isolate 6 B1332, read-out: MIC) [µg/mL]	MIC ([3]; isolate 7 B1331, read-out: MIC) [µg/mL]	MIC ([3]; isolate 8 B1330, read-out: MIC) [µg/mL]	MIC ([3]; isolate 9 B1379, read-out: MIC) [µg/mL]	MIC [3, 5] [µg/mL]	MIC [3, 6] [µg/mL]	MIC [3, 7] [µg/mL]	MIC [3, 8] [µg/mL]	MIC [3, 9] [µg/mL]	MIC [3, 10] [µg/mL]	MIC [3, 11] [µg/mL]	MIC [3, 12] [µg/mL]	MIC [3, 13] [µg/mL]	MIC [3, 14] [µg/mL]	further results
N=C(N)NCCCCC(=O)Nc1cc(C(F)(F)F)cc(NC(=O)c2cc(C(=O)Nc3cc(C(F)(F)F)cc(NC(=O)CCCCNC(=N)N)c3SCCN)ncn2)c1SCCN [Oligomer 2]	–	–	–	–	–	–	–	–	–	–	–	–	–	–	–	–	–	–	–	–	MIC50 [1]: 0.125 µg/mL; MIC90 [1]: 0.25 µg/mL; Effect of removal of the epithelium on Total Ocular Scores ([2]; Ker-1, 1% and 0.5% Oligomer 2, compared with intact epithelia): increased the Total Ocular Scores
N=C(N)NCCCCC(=O)Nc1cc(C(F)(F)F)cc(NC(=O)c2cc(C(=O)Nc3cc(C(F)(F)F)cc(NC(=O)CCCCNC(=N)N)c3O[C@@H]3CCNC3)ncn2)c1O[C@@H]1CCNC1 [Oligomer 4]	8 (≈ 8.54 µM)	8 (≈ 8.54 µM)	8 (≈ 8.54 µM)	8 (≈ 8.54 µM)	8 (≈ 8.54 µM)	4 (≈ 4.27 µM)	8 (≈ 8.54 µM)	8 (≈ 8.54 µM)	8 (≈ 8.54 µM)	16 (≈ 17.1 µM)	8 (≈ 8.54 µM)	4 (≈ 4.27 µM)	8 (≈ 8.54 µM)	8 (≈ 8.54 µM)	32 (≈ 34.2 µM)	8 (≈ 8.54 µM)	8 (≈ 8.54 µM)	16 (≈ 17.1 µM)	8 (≈ 8.54 µM)	2 (≈ 2.13 µM)	MIC [3, 15]: 4 µg/mL (≈ 4.27 µM); MIC [3, 16]: 4 µg/mL (≈ 4.27 µM); MIC [3, 17]: 8 µg/mL (≈ 8.54 µM); MIC [3, 18]: 8 µg/mL (≈ 8.54 µM); MIC [3, 19]: 4 µg/mL (≈ 4.27 µM); MIC [3, 20]: 8 µg/mL (≈ 8.54 µM); MIC50 [3, 21]: 8 µg/mL (≈ 8.54 µM); MIC90 [3, 21]: 8 µg/mL (≈ 8.54 µM); MIC [3, 22]: 8 µg/mL (≈ 8.54 µM); Range of MICs [3, 21]: 2 to 32 µg/mL
N=C(N)NCCCCC(=O)Nc1cc(C(F)(F)F)cc(NC(=O)c2cnc(C(=O)Nc3cc(C(F)(F)F)cc(NC(=O)CCCCNC(=N)N)c3SCCN)cn2)c1SCCN [Oligomer 5]	16 (≈ 17.4 µM)	> 64	> 64	> 64	> 64	16 (≈ 17.4 µM)	64 (≈ 69.8 µM)	> 64	> 64	8 (≈ 8.72 µM)	4 (≈ 4.36 µM)	2 (≈ 2.18 µM)	4 (≈ 4.36 µM)	2 (≈ 2.18 µM)	8 (≈ 8.72 µM)	16 (≈ 17.4 µM)	16 (≈ 17.4 µM)	64 (≈ 69.8 µM)	16 (≈ 17.4 µM)	8 (≈ 8.72 µM)	MIC [3, 15]: 8 µg/mL (≈ 8.72 µM); MIC [3, 16]: 16 µg/mL (≈ 17.4 µM); MIC [3, 17]: 4 µg/mL (≈ 4.36 µM); MIC [3, 18]: 32 µg/mL (≈ 34.9 µM); MIC [3, 19]: 32 µg/mL (≈ 34.9 µM); MIC [3, 20]: > 64 µg/mL; MIC50 [3, 21]: 16 µg/mL (≈ 17.4 µM); MIC90 [3, 21]: 128 µg/mL (≈ 140 µM); MIC [3, 22]: 16 µg/mL (≈ 17.4 µM); Range of MICs [3, 21]: 2 to 128 µg/mL
CC(C)=CCCC(C)=CCCC(C)=CCO [Farnesol]	–	–	–	–	–	–	–	–	–	–	–	–	–	–	–	–	–	–	–	–	Toxicity (Total Ocular Scores) compared with Saline treated eyes ([2]; rabbit, in vivo): did not induce statistically greater toxicity
